Experiment [1] has as its system Tyrosine-protein kinase ABL1 (Homo sapiens), P00519 [H396P]. As to the kind of experiment: Inhibition of phosphorylated ABL1 H396P mutant (unknown origin) assessed as residual activity at 100 nM by KINOMEscan analysis relative to control.
Experiment [2] addresses Calcium/calmodulin-dependent protein kinase type 1 (Homo sapiens) (UniProt Q14012). Kind of experiment: Inhibition of CAMK1 (unknown origin) assessed as residual activity at 100 nM by KINOMEscan analysis relative to control.
Experiment [3] relates to Receptor-type tyrosine-protein kinase FLT3 (Homo sapiens), P36888 [K663Q]. Kind of experiment: Inhibition of FLT3 K663Q mutant (unknown origin) assessed as residual activity at 100 nM by KINOMEscan analysis relative to control.
In experiment [4] the target is T1, Mitogen-activated protein kinase kinase kinase kinase 3 (Homo sapiens) (UniProt Q8IVH8).
T1 sequence (whole entry): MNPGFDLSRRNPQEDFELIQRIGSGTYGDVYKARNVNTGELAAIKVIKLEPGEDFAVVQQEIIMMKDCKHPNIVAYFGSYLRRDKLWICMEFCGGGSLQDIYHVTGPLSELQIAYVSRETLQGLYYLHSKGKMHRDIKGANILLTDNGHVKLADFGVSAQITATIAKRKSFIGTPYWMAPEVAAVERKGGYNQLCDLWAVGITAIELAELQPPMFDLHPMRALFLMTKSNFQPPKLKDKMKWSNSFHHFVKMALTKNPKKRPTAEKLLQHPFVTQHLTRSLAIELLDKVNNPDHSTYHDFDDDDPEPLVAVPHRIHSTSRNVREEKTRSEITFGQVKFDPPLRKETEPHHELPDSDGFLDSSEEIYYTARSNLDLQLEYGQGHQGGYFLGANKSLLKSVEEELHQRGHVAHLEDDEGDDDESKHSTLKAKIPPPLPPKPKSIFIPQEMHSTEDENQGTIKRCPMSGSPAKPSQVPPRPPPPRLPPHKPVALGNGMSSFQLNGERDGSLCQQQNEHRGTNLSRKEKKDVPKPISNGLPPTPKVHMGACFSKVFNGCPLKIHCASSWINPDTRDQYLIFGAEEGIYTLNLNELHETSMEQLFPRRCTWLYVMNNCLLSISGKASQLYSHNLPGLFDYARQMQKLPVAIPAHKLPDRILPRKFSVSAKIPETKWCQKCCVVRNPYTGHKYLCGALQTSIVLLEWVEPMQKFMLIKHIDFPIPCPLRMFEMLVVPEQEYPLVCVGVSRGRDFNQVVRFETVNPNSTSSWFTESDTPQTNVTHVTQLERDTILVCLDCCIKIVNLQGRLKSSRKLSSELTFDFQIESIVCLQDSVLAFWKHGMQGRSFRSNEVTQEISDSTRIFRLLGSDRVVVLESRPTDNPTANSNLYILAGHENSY
Kind of experiment: Inhibition of MAP4K3 (unknown origin) assessed as residual activity at 100 nM by KINOMEscan analysis relative to control.

The subject of experiment [5] is Phosphatidylinositol 4,5-bisphosphate 3-kinase catalytic subunit alpha isoform (Homo sapiens), P42336 [C420R]. As to the kind of experiment: Inhibition of PIK3CA C420R mutant (unknown origin) assessed as residual activity at 100 nM by KINOMEscan analysis relative to control.
Experiment [6] concerns the target T2, Serine/threonine-protein kinase PLK4 (Homo sapiens) (UniProt O00444).
T2 sequence (whole entry): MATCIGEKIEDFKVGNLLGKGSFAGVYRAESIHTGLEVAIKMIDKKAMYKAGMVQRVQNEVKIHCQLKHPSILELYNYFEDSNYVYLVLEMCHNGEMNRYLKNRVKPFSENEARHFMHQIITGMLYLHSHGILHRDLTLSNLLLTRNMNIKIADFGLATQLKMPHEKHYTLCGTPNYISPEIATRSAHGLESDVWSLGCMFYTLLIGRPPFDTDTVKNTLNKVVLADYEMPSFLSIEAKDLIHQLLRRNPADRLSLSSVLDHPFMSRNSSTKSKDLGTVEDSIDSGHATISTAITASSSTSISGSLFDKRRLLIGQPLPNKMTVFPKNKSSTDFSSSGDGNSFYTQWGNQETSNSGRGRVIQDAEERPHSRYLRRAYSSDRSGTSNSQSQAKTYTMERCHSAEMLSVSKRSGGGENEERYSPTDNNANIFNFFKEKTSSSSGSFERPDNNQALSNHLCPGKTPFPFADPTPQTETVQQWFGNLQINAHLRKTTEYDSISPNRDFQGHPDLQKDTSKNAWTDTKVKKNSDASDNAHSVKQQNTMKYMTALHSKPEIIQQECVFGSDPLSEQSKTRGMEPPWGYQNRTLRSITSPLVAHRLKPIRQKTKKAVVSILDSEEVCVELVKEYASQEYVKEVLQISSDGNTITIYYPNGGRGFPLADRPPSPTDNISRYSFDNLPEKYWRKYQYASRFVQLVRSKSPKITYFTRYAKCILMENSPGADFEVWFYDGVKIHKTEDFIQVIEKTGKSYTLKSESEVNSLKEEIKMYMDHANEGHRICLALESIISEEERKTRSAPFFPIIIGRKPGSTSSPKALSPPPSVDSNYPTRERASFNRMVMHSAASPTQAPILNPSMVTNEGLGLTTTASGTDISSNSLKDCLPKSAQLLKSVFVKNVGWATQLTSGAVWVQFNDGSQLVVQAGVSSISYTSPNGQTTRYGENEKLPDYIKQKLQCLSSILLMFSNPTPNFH
Kind of experiment: Inhibition of PLK4 (unknown origin) assessed as residual activity at 100 nM by KINOMEscan analysis relative to control.

In experiment [7] the target is Serine/threonine-protein kinase PRP4 homolog (Homo sapiens) (UniProt Q13523). Kind of experiment: Inhibition of PRP4 (unknown origin) assessed as residual activity at 100 nM by KINOMEscan analysis relative to control.
Chain of Serine/threonine-protein kinase PRP4 homolog (Homo sapiens) (Q13523 whole entry): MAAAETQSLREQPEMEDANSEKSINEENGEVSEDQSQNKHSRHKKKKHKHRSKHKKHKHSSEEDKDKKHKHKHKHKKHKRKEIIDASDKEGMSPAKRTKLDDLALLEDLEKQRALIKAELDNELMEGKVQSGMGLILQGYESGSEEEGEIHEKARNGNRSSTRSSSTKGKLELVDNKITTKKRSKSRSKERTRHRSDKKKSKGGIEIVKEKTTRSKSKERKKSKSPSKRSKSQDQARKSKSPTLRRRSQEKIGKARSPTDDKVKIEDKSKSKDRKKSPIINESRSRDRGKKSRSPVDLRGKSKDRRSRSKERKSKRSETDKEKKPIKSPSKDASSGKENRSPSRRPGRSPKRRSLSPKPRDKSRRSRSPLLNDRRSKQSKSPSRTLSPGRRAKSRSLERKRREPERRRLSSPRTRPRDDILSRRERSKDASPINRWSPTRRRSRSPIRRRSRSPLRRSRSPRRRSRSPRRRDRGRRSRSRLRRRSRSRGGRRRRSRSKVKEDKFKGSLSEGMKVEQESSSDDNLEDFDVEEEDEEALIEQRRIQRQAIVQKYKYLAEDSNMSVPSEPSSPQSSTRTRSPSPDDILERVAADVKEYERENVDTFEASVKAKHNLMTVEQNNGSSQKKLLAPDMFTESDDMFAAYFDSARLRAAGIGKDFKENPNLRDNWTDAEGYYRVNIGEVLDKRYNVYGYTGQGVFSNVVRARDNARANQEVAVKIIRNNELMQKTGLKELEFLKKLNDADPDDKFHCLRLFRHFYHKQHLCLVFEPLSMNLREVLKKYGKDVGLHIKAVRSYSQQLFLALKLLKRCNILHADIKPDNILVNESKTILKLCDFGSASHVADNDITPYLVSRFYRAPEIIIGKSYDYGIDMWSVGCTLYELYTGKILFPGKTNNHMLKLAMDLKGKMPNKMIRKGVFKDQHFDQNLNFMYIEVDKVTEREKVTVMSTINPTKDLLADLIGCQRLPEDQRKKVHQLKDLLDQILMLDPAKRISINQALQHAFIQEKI
In experiment [8] the target is Peripheral plasma membrane protein CASK (Homo sapiens) (UniProt O14936). Kind of experiment: Inhibition of CASK (unknown origin) assessed as residual activity at 100 nM by KINOMEscan analysis relative to control.
Chain of Peripheral plasma membrane protein CASK (Homo sapiens) (O14936 whole entry, looked up): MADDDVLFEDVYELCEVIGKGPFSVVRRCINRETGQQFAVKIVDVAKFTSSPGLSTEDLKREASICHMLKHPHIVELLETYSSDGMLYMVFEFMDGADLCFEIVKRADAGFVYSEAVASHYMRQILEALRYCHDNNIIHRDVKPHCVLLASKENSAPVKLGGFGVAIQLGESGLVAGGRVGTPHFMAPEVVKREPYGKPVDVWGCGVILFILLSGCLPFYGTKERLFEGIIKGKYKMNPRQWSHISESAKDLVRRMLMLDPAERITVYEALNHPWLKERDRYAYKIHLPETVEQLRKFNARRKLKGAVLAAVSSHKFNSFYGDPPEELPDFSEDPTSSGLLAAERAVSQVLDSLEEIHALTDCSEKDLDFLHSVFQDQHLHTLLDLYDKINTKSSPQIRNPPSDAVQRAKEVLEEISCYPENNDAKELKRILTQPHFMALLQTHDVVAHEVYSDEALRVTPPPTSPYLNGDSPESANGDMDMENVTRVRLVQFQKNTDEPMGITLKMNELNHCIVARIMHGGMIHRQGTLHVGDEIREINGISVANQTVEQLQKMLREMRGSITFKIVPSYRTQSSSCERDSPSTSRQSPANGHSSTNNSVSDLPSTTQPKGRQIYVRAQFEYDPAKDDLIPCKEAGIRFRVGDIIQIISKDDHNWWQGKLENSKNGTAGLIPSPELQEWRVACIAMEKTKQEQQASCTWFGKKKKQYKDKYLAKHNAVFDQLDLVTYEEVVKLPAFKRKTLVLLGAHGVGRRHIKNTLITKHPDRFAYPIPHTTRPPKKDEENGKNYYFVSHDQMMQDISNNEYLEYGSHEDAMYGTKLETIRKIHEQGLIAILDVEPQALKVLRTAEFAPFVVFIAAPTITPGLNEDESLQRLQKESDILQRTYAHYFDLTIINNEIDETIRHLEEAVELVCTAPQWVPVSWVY

Chain of Phosphatidylinositol 4,5-bisphosphate 3-kinase catalytic subunit alpha isoform (Homo sapiens), P42336 [C420R] (P42336 whole entry C420R, canonical isoform): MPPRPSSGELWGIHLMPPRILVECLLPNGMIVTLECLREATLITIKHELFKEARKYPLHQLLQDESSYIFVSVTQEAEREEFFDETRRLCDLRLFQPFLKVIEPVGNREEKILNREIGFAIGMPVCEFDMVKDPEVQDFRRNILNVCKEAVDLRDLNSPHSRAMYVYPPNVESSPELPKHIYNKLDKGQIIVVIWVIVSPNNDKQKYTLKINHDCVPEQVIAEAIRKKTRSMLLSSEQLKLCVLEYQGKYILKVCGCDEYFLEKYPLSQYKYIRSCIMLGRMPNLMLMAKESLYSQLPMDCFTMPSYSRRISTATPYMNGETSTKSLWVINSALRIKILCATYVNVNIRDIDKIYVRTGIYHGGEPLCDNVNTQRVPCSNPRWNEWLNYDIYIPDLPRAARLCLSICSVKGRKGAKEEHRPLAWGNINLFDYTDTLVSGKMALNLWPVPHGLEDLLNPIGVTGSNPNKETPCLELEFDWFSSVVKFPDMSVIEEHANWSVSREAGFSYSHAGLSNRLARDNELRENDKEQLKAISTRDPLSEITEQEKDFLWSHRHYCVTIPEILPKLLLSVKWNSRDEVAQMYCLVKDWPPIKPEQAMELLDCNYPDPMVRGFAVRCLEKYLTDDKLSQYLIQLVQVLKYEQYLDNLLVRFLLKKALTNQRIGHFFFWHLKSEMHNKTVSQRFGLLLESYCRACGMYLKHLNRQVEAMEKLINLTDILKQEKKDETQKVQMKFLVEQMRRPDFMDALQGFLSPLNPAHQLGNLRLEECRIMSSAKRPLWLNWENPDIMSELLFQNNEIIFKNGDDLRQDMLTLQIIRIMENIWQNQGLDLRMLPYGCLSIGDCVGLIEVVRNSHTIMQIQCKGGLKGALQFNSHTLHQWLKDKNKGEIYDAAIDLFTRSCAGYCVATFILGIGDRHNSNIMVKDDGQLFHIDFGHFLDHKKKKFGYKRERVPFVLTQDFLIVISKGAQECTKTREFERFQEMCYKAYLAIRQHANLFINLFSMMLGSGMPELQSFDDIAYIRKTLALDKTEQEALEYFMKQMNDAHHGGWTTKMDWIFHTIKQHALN
Chain of Calcium/calmodulin-dependent protein kinase type 1 (Homo sapiens) (Q14012 whole entry, looked up): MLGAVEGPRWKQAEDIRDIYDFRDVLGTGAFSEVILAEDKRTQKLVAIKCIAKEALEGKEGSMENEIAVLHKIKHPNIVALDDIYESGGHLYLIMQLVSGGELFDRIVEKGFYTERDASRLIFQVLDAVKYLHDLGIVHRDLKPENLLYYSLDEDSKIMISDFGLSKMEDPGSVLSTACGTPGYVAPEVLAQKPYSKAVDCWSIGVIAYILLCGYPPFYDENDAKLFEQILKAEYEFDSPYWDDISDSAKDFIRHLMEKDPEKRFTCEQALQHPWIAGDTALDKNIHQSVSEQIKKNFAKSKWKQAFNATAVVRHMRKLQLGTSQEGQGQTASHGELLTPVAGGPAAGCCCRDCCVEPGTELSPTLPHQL

Consider `COc1cc2ncnc(N[C@H](C)c3cccc4ccccc34)c2cc1OC`, for which the Activity in experiment [1] was 92%; in experiment [2], 100%; in experiment [3], 90%; in experiment [4] it was 85%; in experiment [5], 90%; in experiment [6], 87%. Besides, the values for the Activity in experiment [7] and in experiment [8] were 95% and 72%, respectively.

The record behind these values is ChEMBL document CHEMBL5678818, “Discovery of potent SOS1 inhibitors that block RAS activation via disruption of the RAS-SOS1 interaction” (Proc Natl Acad Sci U S A, 2019).
